# From ChEMBL document CHEMBL5380857, “Discovery of Potent, Selective, and Orally Bioavailable Small-Molecule Inhibitors of CDK8 for the Treatment of Cancer” (J Med Chem, 2023)
# Calls of active or inactive are those of the source. The calls are words filed in the database; no cut-off is given here.
# Legend:
# [1] = Metabolic stability in mouse liver microsomes assessed as intrinsic clearance at 1 uM preincubated for 10 mins followed by NADPH addition and measured for 60 mins by LC-MS/MS analysis; type: ADME, Microsome; conditions: read-out: CLH
# [2] = Metabolic stability in human liver microsomes assessed as intrinsic clearance at 1 uM preincubated for 10 mins followed by NADPH addition and measured for 60 mins by LC-MS/MS analysis; type: ADME, Microsome; conditions: read-out: CLH
# [3] = target: Glycogen synthase kinase-3 beta (Homo sapiens, UniProt P49841)
# Description: Binding affinity to GSK3B (unknown origin) assessed as dissociation constant by competitive binding assay
# [4] = Half life in Sprague-Dawley rat at 5 mg/kg, po or 1 mg/kg, iv administered as single dose and measured for 24 hrs by LC-MS/MS analysis; type: ADME, organism-based; conditions: in vivo
# MC-38 = experiment: Antitumor activity against mouse MC-38 cells implanted in C57BL/6J syngeneic mouse model assessed as tumor growth inhibition at 3 mg/kg, po administered via gavage once daily for 21 days in presence of mPDL1 antibody administered twice per week and measured 3 times a week by caliper method relative to control; type: functional; conditions: MC-38, 504 h, time 21 day, read-out: TGI
# [5] = Bioavailability in CD-1 mouse at 5 mg/kg, po or 1 mg/kg, iv administered as single dose and measured for 24 hrs by LC-MS/MS analysis; type: ADME, organism-based; conditions: in vivo
# MV4-11 [6] = experiment: Antiproliferative activity against human MV4-11 cells assessed as inhibition of cell growth incubated for 10 days and replacement with fresh media with compounds on day 5 by CTG assay; type: functional, cell-based
# Cytochrome P450 2D6 = Cytochrome P450 2D6 (Homo sapiens, UniProt P10635); experiment: Inhibition of CYP2D6 in human liver microsomes using dextromethorphan as substrate assessed as reduction in substrate demethylation incubated for 10 mins in presence of NADPH by LC-MS/MS analysis; type: ADME, Microsome
# [7] = Half life in Beagle dog at 1 mg/kg, po or 0.5 mg/kg, iv administered as single dose and measured for 24 hrs by LC-MS/MS analysis; type: ADME, organism-based, Canis lupus familiaris; conditions: in vivo
# [8] = Metabolic stability in rat liver microsomes assessed as intrinsic clearance at 1 uM preincubated for 10 mins followed by NADPH addition and measured for 60 mins by LC-MS/MS analysis; type: ADME, Microsome; conditions: read-out: CLH
# Cytochrome P450 2C19 = Cytochrome P450 2C19 (Homo sapiens, UniProt P33261); experiment: Inhibition of CYP2C19 in human liver microsomes using S-mephenytoin as substrate assessed as reduction in substrate hydroxylation incubated for 10 mins in presence of NADPH by LC-MS/MS analysis; type: ADME, Microsome
# [9] = Volume of distribution in Sprague-Dawley rat at 5 mg/kg, po or 1 mg/kg, iv administered as single dose and measured for 24 hrs by LC-MS/MS analysis; type: ADME, organism-based; conditions: in vivo
# [10] = target: Cyclin-dependent kinase 19 (Homo sapiens, UniProt Q9BWU1); experiment: Inhibition of CDK19 (unknown origin)
# [11] = Clearance in CD-1 mouse assessed as liver blood flow at 5 mg/kg, po or 1 mg/kg, iv administered as single dose and measured for 24 hrs by LC-MS/MS analysis; type: ADME, organism-based; conditions: in vivo
# [12] = target: Dual specificity protein kinase CLK2 (Homo sapiens, UniProt P49760); experiment: Binding affinity to CLK2 (unknown origin) assessed as dissociation constant by competitive binding assay
# [13] = target: Glycogen synthase kinase-3 alpha (Homo sapiens, UniProt P49840); experiment: Binding affinity to GSK3A (unknown origin) assessed as dissociation constant by competitive binding assay
# MV4-11 [14] = experiment: Induction of cell cycle arrest in human MV4-11 cells assessed as accumulation of cells at G0/G1 phase at 0.01 to 1 uM incubated for 48 hrs; type: functional, cell-based; conditions: dose 0.01-1 µM
# Cytochrome P450 1A2 = target: T1, Cytochrome P450 1A2 (Homo sapiens, UniProt P05177); experiment: Inhibition of CYP1A2 in human liver microsomes using phenacetin as substrate assessed as reduction in substrate O-deethylation incubated for 10 mins in presence of NADPH by LC-MS/MS analysis; type: ADME, Microsome
# T1 sequence (P05177 whole entry): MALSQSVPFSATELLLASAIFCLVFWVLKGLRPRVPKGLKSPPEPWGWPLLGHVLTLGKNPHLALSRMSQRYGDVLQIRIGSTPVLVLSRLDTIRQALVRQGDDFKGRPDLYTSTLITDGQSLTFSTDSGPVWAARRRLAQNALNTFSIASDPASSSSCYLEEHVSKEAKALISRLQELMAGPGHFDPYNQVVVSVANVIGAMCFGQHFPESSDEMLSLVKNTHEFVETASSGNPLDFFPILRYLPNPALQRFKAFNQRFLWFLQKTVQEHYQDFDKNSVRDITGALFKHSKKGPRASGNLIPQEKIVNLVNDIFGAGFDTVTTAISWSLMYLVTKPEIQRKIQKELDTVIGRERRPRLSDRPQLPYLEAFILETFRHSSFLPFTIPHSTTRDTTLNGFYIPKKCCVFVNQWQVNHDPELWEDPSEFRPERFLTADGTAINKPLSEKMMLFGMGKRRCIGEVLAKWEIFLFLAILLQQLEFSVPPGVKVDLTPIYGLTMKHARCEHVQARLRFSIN
# Cytochrome P450 3A4 = Cytochrome P450 3A4 (Homo sapiens, UniProt P08684); experiment: Inhibition of CYP3A4 in human liver microsomes using midazolam as substrate assessed as reduction in substrate hydroxylation incubated for 10 mins in presence of NADPH by LC-MS/MS analysis; type: ADME, Microsome
# [15] = Volume of distribution in CD-1 mouse at 5 mg/kg, po or 1 mg/kg, iv administered as single dose and measured for 24 hrs by LC-MS/MS analysis; type: ADME, organism-based; conditions: in vivo
# Cytochrome P450 2C9 = Cytochrome P450 2C9 (Homo sapiens, UniProt P11712); experiment: Inhibition of CYP2C9 in human liver microsomes using diclofenac as substrate assessed as reduction in substrate hydroxylation incubated for 10 mins in presence of NADPH by LC-MS/MS analysis; type: ADME, Microsome
# MV4-11 [16] = experiment: Antitumor activity against human MV4-11 cells xenografted in BALB/c nude mouse assessed as tumor growth inhibition at 3 mg/kg, po bid administered by gavage for 17 days and measured 3 times per week by caliper method relative to control; type: functional; conditions: MV4-11, 408 h, time 17 day, read-out: TGI
# [17] = target: Dual specificity tyrosine-phosphorylation-regulated kinase 1B (Homo sapiens, UniProt Q9Y463); experiment: Binding affinity to DYRK1B (unknown origin) assessed as dissociation constant by competitive binding assay
# MV4-11 [18] = experiment: Antitumor activity against human MV4-11 cells xenografted in BALB/c nude mouse assessed as inhibition of tumor growth administered orally by gavage twice per day for 17 days and measured 3 times per week by caliper method; type: functional, cell-based; conditions: dose 1-10 mg/kg, route po, time 17.0 day
# [19] = target: Dual specificity protein kinase CLK1 (Homo sapiens, UniProt P49759); experiment: Binding affinity to CLK1 (unknown origin) assessed as dissociation constant by competitive binding assay
# [20] = Bioavailability in Sprague-Dawley rat at 5 mg/kg, po or 1 mg/kg, iv administered as single dose and measured for 24 hrs by LC-MS/MS analysis; type: ADME, organism-based; conditions: in vivo
# Chain of Cytochrome P450 2C19 (P33261 whole entry): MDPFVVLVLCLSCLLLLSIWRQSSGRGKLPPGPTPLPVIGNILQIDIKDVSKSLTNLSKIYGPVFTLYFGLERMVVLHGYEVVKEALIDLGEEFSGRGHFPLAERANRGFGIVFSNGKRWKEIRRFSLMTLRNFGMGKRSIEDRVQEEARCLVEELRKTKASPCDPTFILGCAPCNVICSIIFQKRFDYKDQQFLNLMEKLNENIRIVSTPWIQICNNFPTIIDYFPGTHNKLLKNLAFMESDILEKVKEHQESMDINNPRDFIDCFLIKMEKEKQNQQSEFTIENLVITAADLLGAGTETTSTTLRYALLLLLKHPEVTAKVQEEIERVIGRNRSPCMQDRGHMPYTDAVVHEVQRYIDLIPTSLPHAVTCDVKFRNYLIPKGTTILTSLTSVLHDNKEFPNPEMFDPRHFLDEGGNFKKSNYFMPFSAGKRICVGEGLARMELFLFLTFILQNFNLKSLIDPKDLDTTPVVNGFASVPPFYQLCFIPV
# Chain of Dual specificity protein kinase CLK1 (P49759 whole entry): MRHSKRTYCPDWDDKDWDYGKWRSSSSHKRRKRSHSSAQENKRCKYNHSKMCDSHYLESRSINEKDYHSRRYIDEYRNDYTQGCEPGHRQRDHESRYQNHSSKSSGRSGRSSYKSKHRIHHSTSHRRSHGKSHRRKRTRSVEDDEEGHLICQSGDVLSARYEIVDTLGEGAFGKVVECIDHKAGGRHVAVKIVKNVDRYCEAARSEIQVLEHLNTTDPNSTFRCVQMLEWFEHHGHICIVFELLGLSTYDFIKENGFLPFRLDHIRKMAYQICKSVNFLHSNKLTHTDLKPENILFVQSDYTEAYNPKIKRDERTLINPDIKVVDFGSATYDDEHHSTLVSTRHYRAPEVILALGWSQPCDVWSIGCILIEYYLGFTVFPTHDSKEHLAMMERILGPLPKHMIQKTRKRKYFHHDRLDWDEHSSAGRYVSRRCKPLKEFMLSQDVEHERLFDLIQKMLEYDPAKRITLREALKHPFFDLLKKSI
# Chain of Dual specificity protein kinase CLK2 (P49760 whole entry): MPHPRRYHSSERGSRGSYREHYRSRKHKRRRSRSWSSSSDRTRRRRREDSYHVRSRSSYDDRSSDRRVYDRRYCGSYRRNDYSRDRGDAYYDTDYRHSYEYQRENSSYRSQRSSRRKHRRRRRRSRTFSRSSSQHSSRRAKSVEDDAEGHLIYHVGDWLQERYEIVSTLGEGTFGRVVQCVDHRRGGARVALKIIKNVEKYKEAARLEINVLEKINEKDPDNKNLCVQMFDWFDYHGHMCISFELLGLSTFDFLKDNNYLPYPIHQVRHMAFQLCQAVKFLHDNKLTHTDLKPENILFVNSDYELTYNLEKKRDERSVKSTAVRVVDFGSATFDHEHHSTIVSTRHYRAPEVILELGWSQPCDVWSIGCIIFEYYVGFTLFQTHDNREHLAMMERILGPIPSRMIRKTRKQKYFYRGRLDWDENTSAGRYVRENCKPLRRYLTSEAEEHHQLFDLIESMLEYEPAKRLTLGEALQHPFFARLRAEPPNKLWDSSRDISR
# Chain of Cyclin-dependent kinase 19 (Q9BWU1 whole entry): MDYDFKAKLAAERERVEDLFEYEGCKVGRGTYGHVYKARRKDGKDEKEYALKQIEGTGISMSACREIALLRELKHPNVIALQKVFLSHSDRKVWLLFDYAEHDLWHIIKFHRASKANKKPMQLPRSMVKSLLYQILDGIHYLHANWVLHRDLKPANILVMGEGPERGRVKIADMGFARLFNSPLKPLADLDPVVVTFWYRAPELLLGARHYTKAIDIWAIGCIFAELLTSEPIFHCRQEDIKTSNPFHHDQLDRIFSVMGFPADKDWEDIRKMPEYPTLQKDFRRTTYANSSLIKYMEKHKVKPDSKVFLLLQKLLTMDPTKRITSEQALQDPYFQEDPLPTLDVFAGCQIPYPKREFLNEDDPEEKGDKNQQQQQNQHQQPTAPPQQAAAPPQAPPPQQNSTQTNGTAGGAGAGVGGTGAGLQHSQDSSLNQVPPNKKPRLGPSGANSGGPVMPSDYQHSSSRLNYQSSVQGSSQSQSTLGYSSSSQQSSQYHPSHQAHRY
# Chain of Dual specificity tyrosine-phosphorylation-regulated kinase 1B (Q9Y463 whole entry): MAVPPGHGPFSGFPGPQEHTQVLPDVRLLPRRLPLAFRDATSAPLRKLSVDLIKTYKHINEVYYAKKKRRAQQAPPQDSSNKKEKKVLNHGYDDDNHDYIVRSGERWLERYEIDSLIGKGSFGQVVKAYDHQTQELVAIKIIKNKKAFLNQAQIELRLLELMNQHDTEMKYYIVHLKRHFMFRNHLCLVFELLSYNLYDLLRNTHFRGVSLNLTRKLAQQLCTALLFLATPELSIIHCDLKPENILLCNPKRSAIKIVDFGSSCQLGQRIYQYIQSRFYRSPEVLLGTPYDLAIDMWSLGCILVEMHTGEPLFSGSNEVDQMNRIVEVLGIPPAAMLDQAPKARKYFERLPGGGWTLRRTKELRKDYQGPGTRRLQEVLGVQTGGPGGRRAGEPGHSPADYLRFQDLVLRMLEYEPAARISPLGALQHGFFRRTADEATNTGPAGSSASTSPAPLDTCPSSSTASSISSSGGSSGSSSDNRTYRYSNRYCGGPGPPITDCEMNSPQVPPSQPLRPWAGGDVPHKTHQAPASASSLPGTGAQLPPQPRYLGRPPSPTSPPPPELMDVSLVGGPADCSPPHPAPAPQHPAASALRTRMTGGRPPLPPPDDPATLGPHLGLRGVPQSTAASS
# Chain of Cytochrome P450 2D6 (P10635 whole entry): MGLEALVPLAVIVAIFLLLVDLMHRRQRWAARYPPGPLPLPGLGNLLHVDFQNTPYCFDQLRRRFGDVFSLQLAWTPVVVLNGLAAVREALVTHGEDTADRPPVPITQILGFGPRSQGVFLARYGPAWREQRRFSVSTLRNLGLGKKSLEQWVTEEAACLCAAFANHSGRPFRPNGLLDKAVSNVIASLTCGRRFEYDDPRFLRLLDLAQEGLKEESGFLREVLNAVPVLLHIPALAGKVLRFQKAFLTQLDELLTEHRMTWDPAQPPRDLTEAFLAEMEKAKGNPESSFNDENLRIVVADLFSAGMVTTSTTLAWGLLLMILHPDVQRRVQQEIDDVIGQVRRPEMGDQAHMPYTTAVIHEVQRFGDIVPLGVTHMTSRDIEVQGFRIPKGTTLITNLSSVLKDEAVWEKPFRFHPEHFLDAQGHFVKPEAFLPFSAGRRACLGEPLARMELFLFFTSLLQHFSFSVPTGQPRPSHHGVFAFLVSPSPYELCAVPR
# Chain of Glycogen synthase kinase-3 beta (P49841 whole entry): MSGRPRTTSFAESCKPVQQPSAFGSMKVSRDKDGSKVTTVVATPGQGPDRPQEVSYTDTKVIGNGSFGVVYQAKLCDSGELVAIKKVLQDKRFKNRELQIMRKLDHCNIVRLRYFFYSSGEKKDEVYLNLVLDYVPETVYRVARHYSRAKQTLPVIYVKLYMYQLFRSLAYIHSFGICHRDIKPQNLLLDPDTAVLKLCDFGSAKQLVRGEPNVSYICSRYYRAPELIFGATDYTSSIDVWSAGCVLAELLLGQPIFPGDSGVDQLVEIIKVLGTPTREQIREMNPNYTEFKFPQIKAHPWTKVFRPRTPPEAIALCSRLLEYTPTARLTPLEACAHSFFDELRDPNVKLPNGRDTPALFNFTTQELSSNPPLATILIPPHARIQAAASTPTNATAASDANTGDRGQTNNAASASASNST
# Chain of Cytochrome P450 3A4 (P08684 whole entry): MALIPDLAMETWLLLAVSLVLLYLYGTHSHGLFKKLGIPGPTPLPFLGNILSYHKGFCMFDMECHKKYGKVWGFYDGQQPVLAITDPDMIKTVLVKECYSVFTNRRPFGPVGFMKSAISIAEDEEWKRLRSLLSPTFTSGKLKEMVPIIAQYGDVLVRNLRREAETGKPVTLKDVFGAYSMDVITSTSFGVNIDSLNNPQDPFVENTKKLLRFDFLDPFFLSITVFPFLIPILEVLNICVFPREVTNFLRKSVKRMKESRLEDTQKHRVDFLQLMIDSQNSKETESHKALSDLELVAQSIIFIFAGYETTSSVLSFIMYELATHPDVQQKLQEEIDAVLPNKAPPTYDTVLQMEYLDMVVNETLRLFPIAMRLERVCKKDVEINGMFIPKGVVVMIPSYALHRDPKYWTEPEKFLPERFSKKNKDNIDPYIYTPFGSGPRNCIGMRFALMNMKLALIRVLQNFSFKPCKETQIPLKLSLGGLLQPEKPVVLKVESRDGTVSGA
# Chain of Glycogen synthase kinase-3 alpha (P49840 whole entry): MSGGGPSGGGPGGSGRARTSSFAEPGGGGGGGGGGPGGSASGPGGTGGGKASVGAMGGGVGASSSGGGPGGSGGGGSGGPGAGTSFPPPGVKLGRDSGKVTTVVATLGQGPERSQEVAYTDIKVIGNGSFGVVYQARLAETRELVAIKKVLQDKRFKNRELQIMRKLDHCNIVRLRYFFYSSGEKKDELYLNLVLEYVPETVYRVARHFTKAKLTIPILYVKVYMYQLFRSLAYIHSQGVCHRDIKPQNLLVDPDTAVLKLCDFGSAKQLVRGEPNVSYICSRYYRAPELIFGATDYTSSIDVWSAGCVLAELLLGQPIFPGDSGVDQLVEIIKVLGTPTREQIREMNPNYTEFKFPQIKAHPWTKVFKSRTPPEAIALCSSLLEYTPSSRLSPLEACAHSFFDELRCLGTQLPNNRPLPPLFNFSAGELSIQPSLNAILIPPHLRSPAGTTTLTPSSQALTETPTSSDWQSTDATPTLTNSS
# Chain of Cytochrome P450 2C9 (P11712 whole entry): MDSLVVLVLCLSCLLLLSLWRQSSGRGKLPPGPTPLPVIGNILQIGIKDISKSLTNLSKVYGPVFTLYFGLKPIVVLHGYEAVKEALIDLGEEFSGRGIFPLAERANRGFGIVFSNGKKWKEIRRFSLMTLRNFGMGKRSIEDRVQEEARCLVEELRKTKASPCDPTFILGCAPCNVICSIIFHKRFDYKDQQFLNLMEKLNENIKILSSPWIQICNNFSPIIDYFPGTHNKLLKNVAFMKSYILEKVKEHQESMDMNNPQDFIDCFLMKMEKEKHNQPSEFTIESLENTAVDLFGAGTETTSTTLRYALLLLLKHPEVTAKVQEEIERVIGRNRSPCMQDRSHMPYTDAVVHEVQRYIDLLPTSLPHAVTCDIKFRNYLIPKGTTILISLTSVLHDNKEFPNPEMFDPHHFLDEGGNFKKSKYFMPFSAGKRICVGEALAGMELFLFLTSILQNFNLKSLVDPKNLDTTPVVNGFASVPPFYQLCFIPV
structure (smiles),measurement,setting,value
Cc1n[nH]c2ccc(-c3nnc(C)n3Cc3ccc(C(F)(F)F)cc3)cc12,CLint scaled at 1 µM,[1],148 mL/min/kg
same,CLint scaled at 1 µM,[2],< 8.6 mL/min/kg
same,Kd,[3],210 nM
same,half-life,[4],234 min
same,inhibition in vivo at 3 mg/kg,MC-38,80.4%
same,bioavailability,[5],87.4%
same,IC50,MV4-11 [6],11.8 nM
same,IC50,Cytochrome P450 2D6,44.2 µM
same,half-life,[7],276 min
same,CLint scaled at 1 µM,[8],29.9 mL/min/kg
same,IC50,Cytochrome P450 2C19,30.8 µM
same,Vd,[9],1.2 L/kg
same,IC50,[10],2 nM
same,LBF,[11],1.4%
same,Kd,[12],68 nM
same,Kd,[13],240 nM
same,Activity,MV4-11 [14],Active
same,IC50,Cytochrome P450 1A2,> 50 µM
same,IC50,Cytochrome P450 3A4,> 50 µM
same,Vd,[15],0.4 L/kg
same,IC50,Cytochrome P450 2C9,11.4 µM
same,inhibition in vivo at 3 mg/kg,MV4-11 [16],84.8%
same,Kd,[17],2700 nM
same,inhibition,MV4-11 [18],Dose-Dependent Effect
same,Kd,[19],89 nM
same,bioavailability,[20],97.7%
